The experiment concerns the target T1, MCAK (Kinesin-like protein KIF2C/MCAK) (Homo sapiens, UniProt Q99661).
T1 sequence (Q99661 2-725): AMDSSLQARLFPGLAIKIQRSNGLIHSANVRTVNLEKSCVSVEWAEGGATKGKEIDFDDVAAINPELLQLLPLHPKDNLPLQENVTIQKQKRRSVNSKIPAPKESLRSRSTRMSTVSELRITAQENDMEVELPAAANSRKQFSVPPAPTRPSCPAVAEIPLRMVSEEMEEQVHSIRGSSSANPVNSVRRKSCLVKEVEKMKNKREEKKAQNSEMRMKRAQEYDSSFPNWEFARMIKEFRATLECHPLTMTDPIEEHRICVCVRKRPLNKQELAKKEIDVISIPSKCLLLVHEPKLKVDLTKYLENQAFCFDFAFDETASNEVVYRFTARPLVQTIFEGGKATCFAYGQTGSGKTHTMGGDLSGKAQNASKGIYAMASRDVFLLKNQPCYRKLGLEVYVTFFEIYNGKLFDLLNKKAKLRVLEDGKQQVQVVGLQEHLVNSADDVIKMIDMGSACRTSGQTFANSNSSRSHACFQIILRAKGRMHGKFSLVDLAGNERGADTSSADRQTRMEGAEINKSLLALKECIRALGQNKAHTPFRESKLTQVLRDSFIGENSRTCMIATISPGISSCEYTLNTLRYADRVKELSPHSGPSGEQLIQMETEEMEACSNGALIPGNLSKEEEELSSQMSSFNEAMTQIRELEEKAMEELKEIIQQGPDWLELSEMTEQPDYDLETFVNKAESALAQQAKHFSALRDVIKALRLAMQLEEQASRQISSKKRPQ
The experiment can be described thus: displacement of MCAK from immobilized ligand […], Western blot. The following applies: MgATP in NP-40 lysis buffer, 15 min. Type of experiment: biochemical. A general note: Immunoblotting shows a protein as a band on a membrane.

Consider `Nc1ncnc2c1ncn2[C@@H]1O[C@H](COP(=O)(O)OP(=O)(O)OP(=O)(O)O)[C@@H](O)[C@H]1O` [ATP], for which the “displacement of MCAK from immobilized ligand 3, Western blot” value is “MCAK binding to the immobilized drug could be inhibited by increasing concentrations of ATP”.
